According to patent US8399681B2, “Substituted aminothiazolone indazoles as estrogen related receptor-alpha modulators” (Janssen Pharmaceutica NV, priority 2009, dated 2013):

Target: T1, ERR1 (also known as ERR-α or ERR-1) (Homo sapiens, UniProt P11474)
T1 sequence (P11474 193-421 limits assumed): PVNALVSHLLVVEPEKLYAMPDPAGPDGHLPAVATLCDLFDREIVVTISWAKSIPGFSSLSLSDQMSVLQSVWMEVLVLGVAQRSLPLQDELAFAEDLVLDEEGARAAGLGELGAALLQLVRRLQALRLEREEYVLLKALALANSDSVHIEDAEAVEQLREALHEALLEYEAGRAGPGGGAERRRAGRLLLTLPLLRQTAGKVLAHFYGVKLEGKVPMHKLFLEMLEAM
Test: TR-FRET assay (disruption of co-activator peptide binding)
Type: biochemical
Details: 6His-tagged ERR1 LBD, GST-hSRC2 co-activator polypeptide; average of 3 independent experiments
In short: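 Compound-induced loss of co-activator recruitment, read by time-resolved FRET (excitation 340 nm; 615 and 665 nm emission) after 4-18 h at 25 °C. Reagents: 6 nM ERR1LBD, 6 nM GST-SRC-2, 30 nM Eu cryptate, 7.5 nM XL665, pH 8 Tris buffer. Values: hyperbolic fits averaged over 3 independent runs.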

| EC50 | SMILES |
| --- | --- |
| 30 nM | O=C1N=C(N2CC(N3CCOCC3)C2)S/C1=C\c1ccc2c(cnn2Cc2ccc(Cl)cc2C(F)(F)F)c1 [Example 205, 5-({1-[4-Chloro-2-(trifluoromethyl)benzyl]-1H-indazol-5-yl}methylidene)-2-(3-morpholin-4-ylazetidin-1-yl)-1,3-thiazol-4(5H)-one] |
| 4.9 nM | Cc1nn(Cc2ccc(Cl)cc2C(F)(F)F)c2ccc(/C=C3\SC(N4CCN[C@@H](CO)C4)=NC3=O)cc12 [Example 183, 5-[1-(4-Chloro-2-trifluoromethyl-benzyl)-3-methyl-1H-indazol-5-ylmethylene]-2-(3-(R)-hydroxymethyl-piperazin-1-yl)-thiazol-4-one] |
| 6 nM | O=C1N=C(N2CCO[C@@H](CO)C2)S/C1=C\c1ccc2c(cnn2Cc2ccc(Br)cc2C(F)(F)F)c1 [Example 237] |
| 16 nM | Cc1nn(Cc2ccc(Cl)cc2C(F)(F)F)c2ccc(/C=C3\SC(N4CCO[C@H](CO)C4)=NC3=O)cc12 [Example 181, 5-[1-(4-Chloro-2-trifluoromethyl-benzyl)-3-methyl-1H-indazol-5-ylmethylene]-2-(2-(S)-hydroxymethyl-morpholin-4-yl)-thiazol-4-one] |
| 11 nM | COCCN1CCN(C2=NC(=O)/C(=C/c3ccc4c(cnn4Cc4ccc(Cl)cc4C(F)(F)F)c3)S2)[C@H](C)C1 [Example 199, 5-({1-[4-Chloro-2-(trifluoromethyl)benzyl]-1H-indazol-5-yl}methylidene)-2-[4-(2-methoxyethyl)-2-(R)-methylpiperazin-1-yl]-1,3-thiazol-4(5H)-one] |
| 6.5 nM | CN1CCN(C2=NC(=O)/C(=C/c3ccc4c(cnn4Cc4ccc(Cl)cc4C(F)(F)F)c3)S2)[C@@H](CO)C1 [Example 254, 5-({1-[4-Chloro-2-(trifluoromethyl)benzyl]-1H-indazol-5-yl}methylidene)-2-[(2R)-2-(hydroxymethyl)-4-methylpiperazin-1-yl]-1,3-thiazol-4(5H)-one] |
| 10 nM | COc1ccc(Cn2ncc3cc(/C=C4\SC(N5C[C@@H](O)[C@H](O)C5)=NC4=O)ccc32)c(C(F)(F)F)c1 [Example 32, 2-(3R,4R-Dihydroxy-pyrrolidin-1-yl)-5-[1-(4-methoxy-2-trifluoromethyl-benzyl)-1H-indazol-5-ylmethylene]-thiazol-4-one] |
| 3.2 nM | O=C1N=C(N2CCC[C@H]2C(=O)O)S/C1=C\c1ccc2c(cnn2Cc2ccc(Cl)cc2C(F)(F)F)c1 [Example 44, 1-{5-[1-(4-Chloro-2-trifluoromethyl-benzyl)-1H-indazol-5-ylmethylene]-4-oxo-4,5-dihydro-thiazol-2-yl}-pyrrolidine-2-(S)-carboxylic acid] |
| 29 nM | COC1CCN(C2=NC(=O)/C(=C/c3ccc4c(cnn4Cc4ccc(Cl)cc4C(F)(F)F)c3)S2)CC1 [Example 112, 5-[1-(4-Chloro-2-trifluoromethyl-benzyl)-1H-indazol-5-ylmethylene]-2-(4-methoxy-piperidin-1-yl)-thiazol-4-one] |
| 34 nM | COc1ccc(Cn2ncc3cc(/C=C4\SC(N5CCC[C@@H]5C(=O)O)=NC4=O)ccc32)c(C(F)(F)F)c1 [Example 45, 1-{5-[1-(4-M ethoxy-2-trifluoromethyl-benzyl)-1H-indazol-5-ylmethylene]-4-oxo-4,5-dihydro-thiazol-2-yl}-pyrrolidine-2-(R)-carboxylic acid] |
| 4 nM | C[C@@H]1CN(C2=NC(=O)/C(=C/c3ccc4c(cnn4Cc4ccc(Cl)cc4C(F)(F)F)c3)S2)C[C@H](C)N1 [Example 241, 5-({1-[4-Chloro-2-(trifluoromethyl)benzyl]-1H-indazol-5-yl}methylidene)-2-((3R,5S)-3,5-dimethylpiperazin-1-yl)-1,3-thiazol-4(5H)-one] |
| 4.5 nM | CN1C[C@@H]2C[C@H]1CN2C1=NC(=O)/C(=C/c2ccc3c(cnn3Cc3ccc(Cl)cc3C(F)(F)F)c2)S1 [Example 78, 5-[1-(4-Chloro-2-trifluoromethyl-benzyl)-1H-indazol-5-ylmethylene]-2-(5-methyl-2S,5S-diaza-bicyclo[2.2.1]hept-2-yl)-thiazol-4-one] |
| 14.4 nM | CN1CCN(C2=NC(=O)/C(=C/c3ccc4c(cnn4Cc4ccc(Cl)cc4C4CC4)c3)S2)CC1 [Example 93, 5-[1-(4-Chloro-2-cyclopropyl-benzyl)-1H-indazol-5-ylmethylene]-2-(4-methyl-piperazin-1-yl)-thiazol-4-one] |
| 32 nM | COC(=O)COC1CCN(C2=NC(=O)/C(=C/c3ccc4c(cnn4Cc4ccc(Cl)cc4C(F)(F)F)c3)S2)CC1 [Example 130] |
| 26.2 nM | NC1(C(=O)O)CCN(C2=NC(=O)/C(=C/c3ccc4c(cnn4Cc4ccc(Cl)cc4C(F)(F)F)c3)S2)CC1 [Example 154, 4-Amino-1-{5-[1-(4-chloro-2-trifluoromethyl-benzyl)-1H-indazol-5-ylmethylene]-4-oxo-4,5-dihydro-thiazol-2-yl}-piperidine-4-carboxylic acid] |
| 11 nM | C[C@@H]1CN(C2=NC(=O)/C(=C/c3ccc4c(cnn4Cc4ccc(C(F)(F)F)cc4C(F)(F)F)c3)S2)C[C@H](C)N1 [Example 238, 5-({1-[2,4-(trifluoromethyl)benzyl]-1H-indazol-5-yl}methylidene)-2-(3,5-(cis)-dimethylpiperazin-1-yl)-1,3-thiazol-4(5H)-one] |
| 29 nM | CCOC(=O)CN1CCN(C2=NC(=O)/C(=C/c3ccc4c(cnn4Cc4ccc(Cl)cc4C(F)(F)F)c3)S2)CC1 [Example 127] |
| 21 nM | O=C1N=C(N2CCOCC2)S/C1=C\c1ccc2c(cnn2Cc2ccc(C(F)(F)F)cc2C(F)(F)F)c1 [Compound 3, 5-[1-(2,4-Bis-trifluoromethyl-benzyl)-1H-indazol-5-ylmethylene]-2-morpholin-4-yl-thiazol-4-one] |
| 64 nM | CC(C)N[C@@H]1C[C@H](CO)N(C2=NC(=O)/C(=C/c3ccc4c(cnn4Cc4ccc(C(F)(F)F)cc4C(F)(F)F)c3)S2)C1 [Example 262] |
| 25.3 nM | O=C1N=C(N2CCN(C3CC3)CC2)S/C1=C\c1ccc2c(cnn2Cc2ccc(Cl)cc2C(F)(F)F)c1 [Example 121, 5-[1-(4-Chloro-2-trifluoromethyl-benzyl)-1H-indazol-5-ylmethylene]-2-(4-cyclopropyl-piperazin-1-yl)-thiazol-4-one] |
| 4.2 nM | CN1CCCN(C2=NC(=O)/C(=C/c3ccc4c(cnn4Cc4ccc(C(F)(F)F)cc4C(F)(F)F)c3)S2)CC1 [Example 42, 5-[1-(2,4-Bis-trifluoromethyl-benzyl)-1H-indazol-5-ylmethylene]-2-(4-methyl-[1,4]diazepan-1-yl)-thiazol-4-one] |
| 18 nM | CCC1(O)CCCN(C2=NC(=O)/C(=C/c3ccc4c(cnn4Cc4ccc(Cl)cc4C(F)(F)F)c3)S2)C1 (centres unmarked) [Example 165, 5-[1-(4-Chloro-2-trifluoromethyl-benzyl)-1H-indazol-5-ylmethylene]-2-(3-ethyl-3-hydroxy-piperidin-1-yl)-thiazol-4-one] |
| 10.8 nM | Cc1nn(Cc2ccc(C(F)(F)F)cc2C(F)(F)F)c2ccc(/C=C3\SC(N4CCN[C@@H](CO)C4)=NC3=O)cc12 [Example 182, 5-[1-(2,4-Bis-trifluoromethyl-benzyl)-3-methyl-1H-indazol-5-ylmethylene]-2-(3-(R)-hydroxymethyl-piperazin-1-yl)-thiazol-4-one] |
| 26 nM | CC(C)(C)NC(=O)[C@@H]1CN(C2=NC(=O)/C(=C/c3ccc4c(cnn4Cc4ccc(Cl)cc4C(F)(F)F)c3)S2)CCN1 [Example 228, (2S)—N-tert-Butyl-4-[5-({1-[4-chloro-2-(trifluoromethyl)benzyl]-1H-indazol-5-yl}methylidene)-4-oxo-4,5-dihydro-1,3-thiazol-2-yl]piperazine-2-carboxamide] |
| 57.5 nM | N#Cc1ccc(Cn2ncc3cc(/C=C4\SC(N5CCN(CCO)CC5)=NC4=O)ccc32)c(C(F)(F)F)c1 [Compound 9, 4-(5-{2-[4-(2-Hydroxy-ethyl)-piperazin-1-yl]-4-oxo-4H-thiazol-5-ylidenemethyl}-indazol-1-ylmethyl)-3-trifluoromethyl-benzonitrile] |
| 6 nM | O=C1N=C(N2CC[C@H]2C(=O)O)S/C1=C\c1ccc2c(cnn2Cc2ccc(C(F)(F)F)cc2C(F)(F)F)c1 [Example 49, 1-{5-[1-(2,4-Bis-trifluoromethyl-benzyl)-1H-indazol-5-ylmethylene]-4-oxo-4,5-dihydro-thiazol-2-yl}-azetidine-2-(S)-carboxylic acid] |
| 12.1 nM | NC1CCN(C2=NC(=O)/C(=C/c3ccc4c(cnn4Cc4ccc(Cl)cc4C(F)(F)F)c3)S2)CC1 [Example 57, 2-(4-Amino-piperidin-1-yl)-5-[1-(4-chloro-2-trifluoromethyl-benzyl)-1H-indazol-5-ylmethylene]-thiazol-4-one] |
| > 4000 nM | CS(=O)(=O)c1ccc(Cn2ncc3cc(/C=C4\SC(N5CCNC(=O)C5)=NC4=O)ccc32)c(Cl)c1 [Compound 18, 4-{5-[1-(2-Chloro-4-methanesulfonyl-benzyl)-1H-indazol-5-ylmethylene]-4-oxo-4,5-dihydro-thiazol-2-yl}-piperazin-2-one] |
| 15 nM | CNC(=O)[C@H]1CN(C2=NC(=O)/C(=C/c3ccc4c(cnn4Cc4ccc(C(F)(F)F)cc4C(F)(F)F)c3)S2)CCN1 [Example 227, (2R)-4-[5-({1-[2,4-Bis(trifluoromethyl)benzyl]-1H-indazol-5-yl}methylidene)-4-oxo-4,5-dihydro-1,3-thiazol-2-yl]-N-methylpiperazine-2-carboxamide] |
